Test results published in article PMC5561493 (Journal of Clinical Pharmacology, 2017).
Values joined by “and” are separate entries in the source; they are usually repeats but may differ in a detail not shown here. Equal values may be shown once. Read-outs that look alike come from different tables or passages of the source.

Columns and labels:
[1] = Population PK analysis of bortezomib in pediatric ALL/AML patients; assay type: in vivo, human; details: for half-life: human, plasma, intravenous, 1.3 mg/m^2, half-life, geometric mean (%CV)
[2] = adult patients, cited from earlier work
[3] = 1.6 mg/m^2 dose level; cited from earlier work
[4] = test system: blood 20S proteasome activity; details: 1.2 and 1.6 mg/m^2 IV; cited from earlier work
[5] = 1.7 mg/m^2 dose level; cited from earlier work
CYP3A = details: coadministration of ketoconazole; cited from earlier work
CYP2C19 = details: cited from earlier work
[6] = varying grades of renal impairment; cited from earlier work
[7] = in vitro transport studies; ref Takeda, data on file; cited from earlier work
efflux pumps = details: in vitro transport studies; ref Takeda, data on file; cited from earlier work
cytochrome P450 enzymes = details: in decreasing order of relative contributions; cited from earlier work
[8] = final population PK model, bootstrap, 1.3 mg/m^2 IV repeat dose

- clearance, geometric mean (%CV) ([1]; all patients (N = 104), 2-16 y, individual estimates, 1.3 mg/m^2 IV repeat dose): 7.79 (25%) L/(h·m^2)
- volume of distribution at steady-state, geometric mean (%CV) ([1]; all patients (N = 104), sum of V1, V2, V3): 834 (39%) L/m^2
- Interindividual variability (CV) of CL ([1]; base model): 41.2%
- Interindividual variability (CV) of Q3 ([1]; base model): 38.3%
- Interindividual variability (CV) of V1 ([1]; base model): 50.7%
- Interindividual variance of CL ([1]; final model): 29.7 %CV
- Interindividual variance of Q3 ([1]; final model): 29.8 %CV
- Interindividual variance of V1 ([1]; final model): 34.6 %CV
- V1 (central volume), population median [1, 8]: 10.0 L
- V2 (peripheral volume 1), population median [1, 8]: 32.5 L
- V3 (peripheral volume 2), population median [1, 8]: 975 L
- BSA effect on Q3 (exponent) ([1]; final population PK model, power model): 0.75
- half-life ([1]; α disposition phase, all patients (N = 104)): 0.103 h
- half-life ([1]; β disposition phase, all patients (N = 104)): 1.58 h
- half-life ([1]; γ (terminal/elimination) disposition phase, all patients (N = 104)): 100 h
- BSA-normalized clearance, mean (%CV) ([1]; patients 2 to 11 years old (N = 62)): 8.11 (25%) L/(h·m^2) and 8.11 L/(h·m^2)
- BSA-normalized clearance, mean (%CV) ([1]; patients aged 12 to 16 years (N = 42)): 7.94 (25%) L/(h·m^2) and 7.94 L/(h·m^2)
SMILES: CC(C)C[C@H](NC(=O)[C@H](Cc1ccccc1)NC(=O)c1cnccn1)B(O)O [bortezomib]
- BSA-normalized clearance, mean (%CV) ([2]; 1.0 mg/m^2 dose): 12.9 (70%) L/(h·m^2)
- BSA-normalized clearance, mean (%CV) ([2]; 1.3 mg/m^2 dose): 14.9 (63%) L/(h·m^2)
- dose-limiting toxicities [3]: 2 dose‐limiting toxicities of thrombocytopenia
- inhibition of blood 20S proteasome activity [4]: Dose‐dependent inhibition
- time of maximal inhibition of blood 20S proteasome activity after dosing [4]: ≤ 1 h
- dose-limiting toxicities [5]: Two dose‐limiting toxicities (grade 3 confusion and grade 4 hypotension with fever)
- increase in bortezomib area under the concentration-time curve (CYP3A): 35%
- effect of omeprazole coadministration on bortezomib PK (CYP2C19): did not alter bortezomib PK
- effect of renal impairment on bortezomib clearance [6]: did not alter bortezomib clearance
- apparent permeability [7]: high apparent permeability
- substrate for efflux pumps (efflux pumps): not a substrate for efflux pumps
- CYP enzymes mediating hepatic microsomal metabolism (cytochrome P450 enzymes): primary involvement of CYPs 3A4, 2C19, and 1A2
